We go through two molecules from patent publication US20100183710A1, “OMEPRAZOLE FORM B” (priority 2005, published 2010).

The conditions of series [1]: as described in U.S. Pat. No. 6,150,380; cited from earlier work.
Series [2] is described as follows: Long-term stability study of omeprazole Form B (polymorphic form by XRPD). In kind it is physicochemical. An excerpt:
Omeprazole Form B prepared using a method similar to the one described in Example 1 was subjected to long-term stability studies. Each sample was packed in a clear polythene bag, filled with nitrogen, tied with a tag and kept in a black polythene bag along with silica pouch filled with nitrogen and then sealed. Finally, the above triple laminated bag along with silica pouch was sealed and stored in a HDPE drum. The color, moisture content, purity and the polymorphic form of the product was checked at intervals during storage. The results for compliance of polymorphic form are tabulated below, where “ND” means not detected by XRPD. 950 mg of Form B and 50 mg of Form A of Omeprazole were weighed and combined to form a weight ratio of Form B to Form A of 95:5. The mixture was ground three times in a mortar to get a uniform powder. [table] FIG. 6 is a scan for pure omeprazole Form B. FIG. 5 is the XRPD scan for the standard, containing 5% by weight of omeprazole Form A, and the scan of FIG. 6 has been superimposed for comparison.

As to `COc1ccc2[nH]c([S+]([O-])Cc3ncc(C)c(OC)c3C)nc2c1` (centres unmarked) [Omeprazole Form B, 5-Methoxy-2-[[(4-methoxy-3,5-dimethyl-2-pyridinyl)methyl]sulfinyl]-1H-benzimidazole], the “Conversion into Form A” value in series [1] was “can completely or partially convert into Form A”. Further, the “Color, moisture content and purity of the product during storage” value in series [2] (long-term stability storage) is recorded as “remained substantially the same”. Moreover, in series [2] (storage in a container for 6 months at 40° C. and 60% relative humidity), the “Conversion into crystalline Form A during storage” value was “does not convert into crystalline Form A”.

With `COc1ccc2[nH]c([S+]([O-])Cc3ncc(C)c(OC)c3C)nc2c1` (centres unmarked) [omeprazole Form A, 5-Methoxy-2-[[(4-methoxy-3,5-dimethyl-2-pyridinyl)methyl]sulfinyl]-1H-benzimidazole], in series [1], the “Hygroscopicity relative to omeprazole Form B” value is “less hygroscopic” and the “Thermodynamic stability relative to omeprazole Form B” value is “thermodynamically more stable”.
